Experimental data published in patent US20110059986A1, “INTERMITTENT DOSING REGIMEN FOR OVERWEIGHT AND OBESE SUBJECTS” (priority 2004, published 2011).

Legend:
Format in all cases: in vivo
[1] = system: obese Beagle dogs; assay: Efficacy study with continuous administration of mitratapide during 8 weeks; settings: oral
Method: FIG. 1 is a graph displaying the results of an efficacy study wherein the apoB secretion/MTP inhibitor mitratapide was administered during 8 weeks to a group of obese Beagle dogs. The four curves illustrate the effect on body weight by plotting the ‘(%) body weight relative to the weight at the start’ when mitratapide was administered with a dosage of 0 mg per kg body weight (A curve), 0.16 mg per kg body weight (B curve), 0.31 mg per kg body weight (C curve) and 0.63 mg per kg body weight in function of the duration of the study.
The efficacy of the apoB secretion/MTP inhibitor mitratapide for the reduction of body weight was studied in a blind, randomised study with 4 parallel groups of 6 dogs each. Three groups were treated orally with three different doses of mitratapide and one group was treated orally with the vehicle and served as a placebo group. The vehicle solution contained the same ingredients as the test formulations with omission of the test substance mitratapide.
The treatment groups were:
placebo group A treated orally with vehicle
group B treated orally with 0.16 mg mitratapide per kg body weight
group C treated orally with 0.31 mg mitratapide per kg body weight
group D treated orally with 0.63 mg mitratapide per kg body weight
The test subjects were healthy, male Beagle dogs with a body weight of 13.6 to 22.6 kg at the start of the experiment and between 1 and 8 years old. All dogs were treated orally using a 5 ml syringe, once daily, in the morning for a period of 8 weeks (56 days) depending on their body weight. Body weight was measured once weekly on days 0, 7, 14, 21, . . . up to day 56. The volume of test formulation was 1 ml per 4 kg body weight. The test formulation was an aqueous 10% hydroxypropyl-β-cyclodextrin solution containing no mitratapide, 0.63 mg mitratapide per ml, 1.25 mg mitratapide per ml or 2.5 mg mitratapide per ml. Each test subject had free access (in volume and time) to commercial dog feed (Bento Kronen Professional Power) and water during the 8 week study. […]

[2] = system: obese Beagle dogs; assay: Comparison of 3 w-2 w-3 w and 4 w-4 w-4 w dosing regimen; settings: 0.63 mg/kg oral gavage once daily
Method: Thirty two healthy obese Beagle dogs of both sexes were included in a study of two different intermittent treatment regimens: a 3 w-2 w-3 w regimen and a 4 w-4 w-4 w regimen. At the start of the study, the dogs weighed between 12.5 and 26 kg which was considered as being more than 20% higher than the ideal body weight. The study was conducted in four groups, two treated groups containing 10 obese Beagle dogs and one placebo group containing 12 obese Beagle dogs. This placebo group of 12 dogs was subdivided in two sets of 6 dogs. One placebo group followed the 3 w-2 w-3 w regimen and the other placebo group the 4 w-4 w-4 w regimen.
The test compound mitratapide was provided as a polyethylene glycol 400 (PEG 400) solution comprising 5 mg mitratapide per ml. The test solution was administered once daily in the morning by oral gavage. The volume of test formulations was 0.125 ml per kg body weight so that mitratapide was administered with a dosage of 0.63 mg/kg body weight. The body weight was measured weekly during the treatment periods to adjust the amount of test formulation. The placebo groups received water as the test formulation. Each test subject had free access (in volume and time) to commercial dog feed (Bento Kronen premium Regular dog pellets) during the first administration period. The first administration period was followed by a period during which administration of mitratapide was withheld. At the same time, the dogs were put on a maintenance diet having a caloric content equal to their caloric expenditure. […] At the start of the second administration period, the dogs were again administered a mitratapide solution with a dosage of 0.63 mg/kg body weight. The dogs were kept on the same maintenance diet as during the previous period. All dogs had free access to drinking water throughout the entire study. Body weight of each test animal was measured weekly on days 0, 7, 14, 21 and so on till day 84. The effect on body weight for each of the four dosage studies is plotted in FIG. 3. […] The reduction of body weight of the two placebo groups was less than 2% after 84 days.

[3] = system: obese Beagle dogs; assay: 4 w-4 w-4 w intermittent dosing regimen study; settings: 4 w-4 w-4 w regimen, 0.63 mg/kg oral once daily
Method: Mitratapide was administered for a first period of four weeks at a dosage of 0.63 mg/kg body weight, withheld for four weeks and again administered for four weeks at a dosage of 0.63 mg/kg body weight. At day 29, the feeding was restricted from ad libitum access to food, to a maintenance diet having a caloric content equal to the caloric expenditure of the test subject.
The effect of a 4 w-4 w-4 w intermittent dosing regimen on 15 obese Beagle dogs, with a body weight of 16% or more above optimal body weight, was studied. The dogs were treated with mitratapide oral solution at a daily single dose of 0.63 mg/kg body weight for two periods of 28 consecutive days (4 weeks) with an intermediate period of 28 consecutive days without treatment.
The test formulation comprising mitratapide was an aqueous 10% hydroxypropyl-β-cyclodextrin solution containing 2.5 mg mitratapide per ml and was administered once daily in an amount of 1 ml per 4 kg body weight. The daily dose was mixed into a small portion of feed and presented to the dog. The rest of the feed was only provided after this portion was consumed. […] The test solution comprising mitratapide was no longer administered and the body weight of the animals was further monitored during the follow-up procedure ending on day 112. […] Body weight of each test animal was measured on days 0, 14, 28, 42, 56, 84 and 112. […]

With `CCC(C)n1ncn(-c2ccc(N3CCN(c4ccc(OCC5COC(CSc6nncn6C)(c6ccc(Cl)cc6)O5)cc4)CC3)cc2)c1=O` (stereo not drawn) [mitratapide, (−)-[2S-[2α, 4α(S*)]]-4-[4-[4-[4-[[2-(4-chlorophenyl)-2-[[(4-methyl-4H-1,2,4-triazol-3-yl)thio]methyl]-1,3-dioxolan-4-yl]methoxy]-phenyl]-1-piperazinyl]phenyl]-2,4-dihydro-2-(1-methylpropyl)-3H-1,2,4-triazol-3-one] the “effect on body weight at 0.63 mg/kg compared with lower dose” value ([1]; 0.63 mg/kg once daily for 8 weeks, free access to feed) was “more effective in reducing body weight”, the “course of body weight reduction (levelling off)” value (shortened to “course of body weight reduction”) ([1]; 0.63 mg/kg once daily, continuous for 8 weeks (curve D)) was “started to level off after three weeks” and the “daily dosage necessary to decrease body weight” value ([1]; once daily for 8 weeks (56 days), free access to feed, doses 0.16, 0.31, 0.63 mg/kg tested) was “at least 0.31 mg/kg”. For the same compound, the “course of body weight reduction” value ([2]; 3 w-2 w-3 w and 4 w-4 w-4 w regimens) was “no body weight reduction levelling off effect was observed”, the “mean effect on body weight reduction” value ([2]; 3 w-2 w-3 w regimen, day 56) was 11% and the “mean effect on body weight reduction” value ([2]; 4 w-4 w-4 w regimen, day 84) was 13%. For the same compound, the “mean reduction of body weight” value ([3]; maintenance diet from the second period, after 84 days) was 9% and the “course of body weight reduction” value ([3]; two treatment periods) was “no body weight reduction levelling off effect was observed”.
